Values joined by “and” are separate entries in the source; they are usually repeats but may differ in a detail not shown here. Identical values can stand only once. Like-named read-outs stand apart in the source and are kept apart here.
Tests used:
α4β3γ2 GABAA/BzR = biological target: T1, α4β3γ2 GABAA/BzR (Homo sapiens, UniProt P18507+P48169); conditions: Figure 33; αxβ3γ2; read-out: Affinity Ki α4; cited from earlier work
T1 construct: expressed in transfected cells; host or cells: LTK cells (given for XLi-093 only)

[1] = tested on: alcohol preferring and HAD rats; conditions: cited from earlier work
baboons = conditions: cited from earlier work
[2] = tested on: Bz BS of GABA(A) receptors; conditions: cited from earlier work
α6β3γ2 GABAA/BzR [3] = biological target: T2, α6β3γ2 GABAA/BzR (Homo sapiens, UniProt P18507+Q16445); assay: Competition binding to HEK cell membranes, α6β3γ2; design: expressed in transfected cells
α6β3γ2 GABAA/BzR [4] = biological target: T2, α6β3γ2 GABAA/BzR; design: expressed in transfected cells; host or cells: LTK cells (given for XLi-093 only); conditions: cited from earlier work
AD rat model = assay: Spatial water maze task in AD rat model; assay type: in vivo; conditions: relative to vehicle, p < 0.05
Source text: It is well known many Down syndrome patients develop Alzheimer's disease or a dementia with a very similar etiology.

α1β3γ2 GABAA receptor = conditions: cited from earlier work
α2β3γ2 GABAA receptor = conditions: cited from earlier work
α3β3γ2 GABAA receptor = conditions: cited from earlier work
α5β3γ2 GABAA receptor = biological target: T3, α5β3γ2 GABAA receptor (Homo sapiens, UniProt P18507+P31644); conditions: cited from earlier work
T3 construct: expressed in transfected cells; host or cells: Xenopus oocytes

mice = conditions: mice; ref Harris, DeLorey et al.; cited from earlier work
rats = conditions: cited from earlier work
rhesus monkeys = conditions: cited from earlier work
α1β3γ2 GABAA/BzR [5] = biological target: T4, α1β3γ2 GABAA/BzR (Homo sapiens, UniProt P14867+P18507); assay: Competition binding to HEK cell membranes, α1β3γ2; design: expressed in transfected cells; conditions: Table 2; data from three separate laboratories; read-out: Affinity Ki α1
α2β3γ2 GABAA/BzR [6] = biological target: T5, α2β3γ2 GABAA/BzR (Homo sapiens, UniProt P18507+P47869); assay: Competition binding to HEK cell membranes, α2β3γ2; design: expressed in transfected cells; conditions: Table 2; data from three separate laboratories; read-out: Affinity Ki α2
α3β3γ2 GABAA/BzR [7] = biological target: T6, α3β3γ2 GABAA/BzR (Homo sapiens, UniProt P18507+P34903); assay: Competition binding to HEK cell membranes, α3β3γ2; design: expressed in transfected cells; conditions: Table 2; data from three separate laboratories; read-out: Affinity Ki α3
α5β3γ2 GABAA/BzR = α5β3γ2 GABAA/BzR (Homo sapiens, UniProt P18507+P31644); assay: Competition binding to HEK cell membranes, α5β3γ2; design: expressed in transfected cells; conditions: Affinity Ki α5
α1β3γ2 GABAA/BzR [8] = biological target: T4, α1β3γ2 GABAA/BzR; design: expressed in transfected cells; host or cells: LTK cells (given for XLi-093 only); conditions: Figure 4, read-out: Ki α1, cited from earlier work
α2β3γ2 GABAA/BzR [9] = biological target: T5, α2β3γ2 GABAA/BzR; design: expressed in transfected cells; host or cells: LTK cells (given for XLi-093 only); conditions: Figure 4, read-out: Ki α2, cited from earlier work
α3β3γ2 GABAA/BzR [10] = biological target: T6, α3β3γ2 GABAA/BzR; design: expressed in transfected cells; host or cells: LTK cells (given for XLi-093 only); conditions: Figure 4, read-out: Ki α3, cited from earlier work
α2β3γ2 BzR/GABA(A) = conditions: Figure 1; LTK cells; read-out: Binding affinity α2; cited from earlier work
α3β3γ2 BzR/GABA(A) = conditions: Figure 1; LTK cells; read-out: Binding affinity α3; cited from earlier work
α4β3γ2 BzR/GABA(A) = conditions: Figure 1; LTK cells; read-out: Binding affinity α4; cited from earlier work
α5β3γ2 BzR/GABA(A) = conditions: Figure 1; LTK cells; read-out: Binding affinity α5; cited from earlier work
α6β3γ2 BzR/GABA(A) = conditions: Figure 1; LTK cells; read-out: Binding affinity α6; cited from earlier work
α1β2γ2 GABAA receptor = biological target: T7, α1β2γ2 GABAA receptor (Homo sapiens, UniProt P14867+P18507); assay: Radioligand binding (McKernan and Atack), α1β2γ2; conditions: Table 3; αxβ2γ2; means of two determinations; read-out: Binding affinity α1
T7 construct: expressed in transfected cells; host or cells: HEK cells
Protocol: (§1) Transfected HEK cells (beta2 gamma2 and desired alpha subtype) were harvested into phosphate-buffered saline, centrifuged at 3,000 g, and stored at −70°C until required. On the day of the assay, pellets were thawed and resuspended in sufficient volume of 50 mM Tris/acetate (pH 7.4 at 4°C) to give a total binding of approximately 1500–2000 dpm. […] Total assay volume was 0.5 mL and assays were carried out in 96-well plates and incubation time started by the addition of 0.1 mL of resuspended cell membranes. Following incubation for 1 hour at 4°C, assays were terminated by filtration through GF/B filters, washed with 10 mL ice cold buffer, dried, and then counted using a liquid scintillation counter. […] We have previously reported the synthesis of the following.

α2β2γ2 GABAA receptor = biological target: T8, α2β2γ2 GABAA receptor (Homo sapiens, UniProt P18507+P47869); assay: Radioligand binding (McKernan and Atack), α2β2γ2; conditions: Table 3; αxβ2γ2; means of two determinations; read-out: Binding affinity α2
T8 construct: expressed in transfected cells; host or cells: HEK cells
Protocol: as §1

α3β2γ2 GABAA receptor = biological target: T9, α3β2γ2 GABAA receptor (Homo sapiens, UniProt P18507+P34903); assay: Radioligand binding (McKernan and Atack), α3β2γ2; conditions: Table 3; αxβ2γ2; means of two determinations; read-out: Binding affinity α3
T9 construct: expressed in transfected cells; host or cells: HEK cells
Protocol: as §1

α4β2γ2 GABAA receptor = biological target: T10, α4β2γ2 GABAA receptor (Homo sapiens, UniProt P18507+P48169); assay: Radioligand binding (McKernan and Atack), α4β2γ2; conditions: Table 3; αxβ2γ2; means of two determinations; read-out: Binding affinity α4
T10 construct: expressed in transfected cells; host or cells: HEK cells
Protocol: as §1

α5β2γ2 GABAA receptor = biological target: T11, α5β2γ2 GABAA receptor (Homo sapiens, UniProt P18507+P31644); assay: Radioligand binding (McKernan and Atack), α5β2γ2; conditions: Table 3; αxβ2γ2; means of two determinations; read-out: Binding affinity α5
T11 construct: expressed in transfected cells; host or cells: HEK cells
Protocol: as §1

α6β2γ2 GABAA receptor = biological target: T12, α6β2γ2 GABAA receptor (Homo sapiens, UniProt P18507+Q16445); assay: Radioligand binding (McKernan and Atack), α6β2γ2; conditions: Table 3; αxβ2γ2; means of two determinations; read-out: Binding affinity α6
T12 construct: expressed in transfected cells; host or cells: HEK cells
Protocol: as §1

Q: With `CCCOc1cc2c(cn1)[nH]c1ccccc12.Cl` [3 PBC, 3-propoxy-β-carboline hydrochloride] as the compound, how does the Ki (α4β3γ2 GABAA/BzR) read?
A: 1000 nM

Q: And the “rate at which rats self-administrated alcohol” value ([1]; alcohol preferring and HAD rats)?
A: reduce the rate

Q: And the sucrose self-administration [1]?
A: little or no effect

Q: And the activity in baboons (baboons)?
A: active

Q: And the modulation ([2]; Supplement Table 1)?
A: antagonist

Q: What about the “pharmacological properties compared with classical benzodiazepine receptor antagonists” value [2] of the same compound?
A: near GABA neutral antagonists

Q: And the Ki (α6β3γ2 GABAA/BzR [3]; Ki α6)?
A: 1000 nM

Q: And the Ki (α6β3γ2 GABAA/BzR [4]; Figure 33, αxβ3γ2, read-out: Affinity Ki α6)?
A: > 1000 nM

Q: With `COCc1ncn2c1CN(C)C(=O)c1cc(Cl)ccc1-2` [PWZ-029 (1)] as the compound, how does the “latency to reach the hidden platform (memory probe trials)” value (AD rat model) read?
A: significant decrease in the latency to reach the hidden platform

Q: What about the “modulation at the α1-subunit” value (α1β3γ2 GABAA receptor; 0.1 μM) of the same compound?
A: little or no effect

Q: What about the “efficacy type at the α1 subunit” value (α1β3γ2 GABAA receptor; oocytes, Sieghart et al.) of the same compound?
A: very weak agonist activity

Q: What about the “modulation at the α2-subunit” value (α2β3γ2 GABAA receptor; 0.1 μM) of the same compound?
A: little or no effect

Q: What about the “efficacy type at the α2 subunit” value (α2β3γ2 GABAA receptor; oocytes, Sieghart et al.) of the same compound?
A: very weak agonist activity

Q: What about the “modulation at the α3-subunit” value (α3β3γ2 GABAA receptor; 0.1 μM) of the same compound?
A: little or no effect

Q: And the “efficacy type at the α3 subunit” value (α3β3γ2 GABAA receptor; oocytes, Sieghart et al.)?
A: very weak agonist activity

Q: What about the “efficacy type at the α5-subunit” value (α5β3γ2 GABAA receptor) of the same compound?
A: negative allosteric modulator

Q: And the “modulation at the α5-subunit” value (α5β3γ2 GABAA receptor)?
A: moderate negative modulation

Q: And the scopolamine-induced memory impairment (mice)?
A: potently reversed

Q: What about the “recognition memory deficit induced by 0.3 mg/kg scopolamine, 1 h delay” value (rats; 2 mg/kg) of the same compound?
A: successfully reversed the deficit in recognition memory

Q: What about the “object recognition, 24 h delay” value (rats; 2, 5 and 10 mg/kg) of the same compound?
A: improved object recognition

Q: And the “ORD “difficult” trials” value (rhesus monkeys; i.v.)?
A: increasing dose-dependent curve for successful trials

Q: What about the “ORD “mixed” trials versus vehicle” value (rhesus monkeys; i.v.) of the same compound?
A: no significant results

Q: What about the “ORD, cholinergic deficits induced by scopolamine” value (rhesus monkeys; scopolamine 0.01 mg/kg) of the same compound?
A: dose-dependently reverse the cholinergic deficits

Q: And the Ki (α1β3γ2 GABAA/BzR [5])?
A: > 300 nM and 920 nM and 362 nM

Q: And the Ki (α2β3γ2 GABAA/BzR [6])?
A: > 300 nM and 180 nM

Q: What about the Ki (α3β3γ2 GABAA/BzR [7]) of the same compound?
A: > 300 nM and 328 nM

Q: And the Ki (α5β3γ2 GABAA/BzR)?
A: 38.8 nM and 30 nM and 6 nM

Q: What about the Ki (α6β3γ2 GABAA/BzR [3]; Affinity Ki α6) of the same compound?
A: > 300 nM

Q: What about the Ki (α1β3γ2 GABAA/BzR [8]; listed as 1a) of the same compound?
A: > 300 nM

Q: And the Ki (α1β3γ2 GABAA/BzR [8]; listed as 1c)?
A: 362 nM

Q: What about the Ki (α2β3γ2 GABAA/BzR [9]; listed as 1a) of the same compound?
A: > 300 nM

Q: What about the Ki (α2β3γ2 GABAA/BzR [9]; listed as 1c) of the same compound?
A: 180 nM

Q: And the Ki (α3β3γ2 GABAA/BzR [10]; listed as 1a)?
A: > 300 nM

Q: What about the Ki (α3β3γ2 GABAA/BzR [10]; listed as 1c) of the same compound?
A: 328 nM

Q: And the Ki (α6β3γ2 GABAA/BzR [4]; read-out: Ki α6)?
A: > 300 nM

Q: For `C#Cc1ccc2c(c1)C(=O)N(C)Cc1c(C(=O)OCC)ncn1-2` [RY-80 (3)], which Ki (α2β3γ2 BzR/GABA(A)) is on record?
A: 21.4 nM

Q: What about the Ki (α3β3γ2 BzR/GABA(A)) of the same compound?
A: 25.8 nM

Q: And the Ki (α4β3γ2 BzR/GABA(A))?
A: 5.3 nM

Q: What about the Ki (α5β3γ2 BzR/GABA(A)) of the same compound?
A: 0.49 nM

Q: And the Ki (α6β3γ2 BzR/GABA(A))?
A: 28.8 nM

Q: With `C#Cc1ccc2c(c1)C(c1ccccc1)=N[C@H](C)c1c(C(=O)OCC)ncn1-2` [SH-053-R-CH3, (15)] as the compound, how does the Ki (α1β2γ2 GABAA receptor) read?
A: 2030 nM

Q: And the Ki (α2β2γ2 GABAA receptor)?
A: 2380 nM

Q: And the Ki (α3β2γ2 GABAA receptor)?
A: 1180 nM

Q: What about the Ki (α4β2γ2 GABAA receptor) of the same compound?
A: > 5000 nM

Q: And the Ki (α5β2γ2 GABAA receptor)?
A: 949 nM

Q: What about the Ki (α6β2γ2 GABAA receptor) of the same compound?
A: > 5000 nM

Q: Which Ki (α1β2γ2 GABAA receptor) does the source give for `C#Cc1ccc2c(c1)C(c1ccccc1)=N[C@@H](C)c1c(C(=O)OCC)ncn1-2` [SH-053-S-CH3, (16)] here?
A: 1670 nM

Q: What about the Ki (α2β2γ2 GABAA receptor) of the same compound?
A: 1260 nM

Q: And the Ki (α3β2γ2 GABAA receptor)?
A: 1250 nM

Q: What about the Ki (α4β2γ2 GABAA receptor) of the same compound?
A: > 5000 nM

Q: And the Ki (α5β2γ2 GABAA receptor)?
A: 206 nM

Q: What about the Ki (α6β2γ2 GABAA receptor) of the same compound?
A: > 5000 nM
